Activity calls are given as the source filed them. The calls are words filed in the database; no cut-off is given here.

The nature of test [1]: Displacement of methyl green from DNA after 24 hr by spectrophotometric analysis.
Test [2] in a line: Binding affinity to DNA at 5 mg/ml by TLC analysis.
The test system of test [3] is MCF7. Briefly: Cytotoxicity against Homo sapiens (human) MCF7 cells after 48 hr by SRB assay. The following applies: MCF7, 48 h. Type of test: functional, cell-based. A general note: In SRB staining, fixed cells bind dye roughly in proportion to their protein.

The IC50 is the concentration that inhibits the measured activity by half. Read a low IC50 as inhibition by little substance. Turning to `COc1ccc(C2C3=C(CCCC3)Nc3ncnc(N)c32)cc1OC` (stereo not drawn), the IC50 in test [1] stood at 12 µM; in test [3], 3.62 µM. Moreover, the result in test [2] was Active.
The matching figures for `Cc1nc2c(c(=O)[nH]1)C(c1cccc(Br)c1)C1=C(CCCC1)N2` (stereo not drawn): 32 µM, 4.03 µM and “Active”.
With `COc1ccc(C2C3=C(CCCC3)Nc3nc(C)[nH]c(=O)c32)cc1OC` (stereo not drawn), the results for the IC50 in test [1] and in test [3] were 25 µM and > 10 µM, respectively. Further, in test [2], the outcome was Active.
The matching figures for `COc1ccc(C2C3=C(CCCC3)Nc3ncn(/N=C/c4ccc(Cl)cc4)c(=N)c32)cc1OC` (stereo not drawn): 14 µM, 3.76 µM and “Active”.
The like results for `c1ccc(C2C3=C(CCCC3)Nc3ncn4ncnc4c32)cc1` (stereo not drawn) were, in that order, 88 µM, > 10 µM and “inactive”.
The matching figures for `COc1ccc(C2C3=C(CCCC3)Nc3[nH]c(=S)[nH]c(=S)c32)cc1OC` (stereo not drawn): 38 µM, > 10 µM and “Active”.
For the compound `CCOC(=O)/N=c1/c2c(ncn1NC(=O)OCC)NC1=C(CCCC1)C2c1ccccc1` (stereo not drawn), the IC50 is 40 µM in test [1] and 5.44 µM in test [3]. The outcome in test [2] was Active.
`CCCCn1c(=S)[nH]c2c(c1=N)C(c1ccc(Cl)cc1)C1=C(CCCC1)N2` (stereo not drawn) came in with an IC50 in test [1] of 88 µM. The result in test [2] was inactive.
The like results for `N=c1c2c([nH]c(=S)n1-c1ccccc1)NC1=C(CCCC1)C2c1ccc(Cl)cc1` (stereo not drawn) were, in that order, 55 µM and “Active”.
`S=c1[nH]c2c(c(=S)[nH]1)C(c1ccccc1)C1=C(CCCC1)N2` (stereo not drawn): the IC50 in test [1] worked out at 72 µM. In addition, the result in test [2] was Active.
As for `Brc1cccc(C2C3=C(CCCC3)Nc3ncn4ncnc4c32)c1` (stereo not drawn), the IC50 is 90 µM in test [1] and > 10 µM in test [3]. In test [2], the outcome was inactive.
The matching figures for `N=c1c2c(ncn1/N=C/c1ccc(Cl)cc1)NC1=C(CCCC1)C2c1ccc(Cl)cc1` (stereo not drawn): 70 µM, > 10 µM and “Active”.
The like results for `O=c1[nH]cnc2c1C(c1ccccc1)C1=C(CCCC1)N2` (stereo not drawn) were, in that order, 88 µM, > 10 µM and “inactive”.
The matching figures for `COc1ccc(C2C3=C(CCCC3)Nc3[nH]c(=S)n(-c4ccccc4)c(=N)c32)cc1OC` (stereo not drawn): 40 µM, 5.3 µM and “Active”.
As to `Nc1ncnc2c1C(c1ccc(Cl)cc1)C1=C(CCCC1)N2` (stereo not drawn), the IC50 in test [1] worked out at 25 µM; in test [3], 3.89 µM. The result in test [2] was Active.
BLEOMYCIN gave an IC50 in test [1] of 10 µM.
With `Cc1nc2c(c(=O)[nH]1)C(c1ccccc1)C1=C(CCCC1)N2` (stereo not drawn), the IC50 in test [1] stood at 22 µM; in test [3], 4.97 µM. Also, the result in test [2] was Active.
The matching figures for `COc1ccc(/C=N/n2cnc3c(c2=N)C(c2ccccc2)C2=C(CCCC2)N3)cc1OC` (stereo not drawn): 32 µM, 5.37 µM and “Active”.
Take `COc1ccc(/C=N/n2cnc3c(c2=N)C(c2ccc(OC)c(OC)c2)C2=C(CCCC2)N3)cc1OC` (stereo not drawn): the IC50 came to 38 µM in test [1] and 6.17 µM in test [3]. Further, the outcome in test [2] was Active.
The like results for `S=c1[nH]c2c(c(=S)[nH]1)C(c1cccc(Br)c1)C1=C(CCCC1)N2` (stereo not drawn) were, in that order, 76 µM, 4.5 µM and “Active”.
In the case of `N=c1c2c(ncn1/N=C/c1ccc(Cl)cc1)NC1=C(CCCC1)C2c1ccccc1` (stereo not drawn), the IC50 in test [1] was 88 µM. The outcome in test [2] was inactive.
Regarding `CCCCn1c(=S)[nH]c2c(c1=N)C(c1ccccc1)C1=C(CCCC1)N2` (stereo not drawn), the IC50 in test [1] is 72 µM; in test [3] it was 5.7 µM. For the same compound, the result in test [2] was Active.
For the compound `N=c1c2c([nH]c(=S)n1-c1ccccc1)NC1=C(CCCC1)C2c1ccccc1` (stereo not drawn), the IC50 in test [1] is 25 µM; in test [3], 6.98 µM. Moreover, the outcome in test [2] was Active.
